# Measurements taken from patent US20230348358A1, “Serotonin Receptor Modulators” (Northeastern University, priority 2020, published 2023).
# Where “and” joins values, the source holds several entries; their conditions need not be identical. Identical values can stand only once. Like-named read-outs stand apart in the source and are kept apart here.
# How the values were obtained:
# 5HT7 [1] = biological target: T1, 5HT7 (Homo sapiens, UniProt P34969); assay: Affinity (Ki) at 5HT7, HEK293 cells stably expressing 5HT7
# T1 sequence (P34969 whole entry): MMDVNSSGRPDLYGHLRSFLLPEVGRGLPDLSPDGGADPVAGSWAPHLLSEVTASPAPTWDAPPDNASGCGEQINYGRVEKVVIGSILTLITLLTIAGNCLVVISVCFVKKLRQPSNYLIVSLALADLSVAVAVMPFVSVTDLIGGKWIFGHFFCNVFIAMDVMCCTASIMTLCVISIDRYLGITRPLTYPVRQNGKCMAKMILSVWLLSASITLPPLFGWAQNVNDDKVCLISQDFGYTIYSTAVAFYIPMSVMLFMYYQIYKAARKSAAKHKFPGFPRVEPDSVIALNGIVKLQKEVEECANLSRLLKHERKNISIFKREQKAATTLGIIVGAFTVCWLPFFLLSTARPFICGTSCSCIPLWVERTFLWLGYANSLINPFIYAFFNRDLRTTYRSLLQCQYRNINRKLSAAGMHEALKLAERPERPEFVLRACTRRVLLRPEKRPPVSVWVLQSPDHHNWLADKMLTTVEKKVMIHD
# 5HT1A [2] = biological target: T2, 5HT1A (Homo sapiens, UniProt P08908); assay: Affinity (Ki) at 5HT1A, transfected HEK cells
# T2 sequence (P08908 1-422): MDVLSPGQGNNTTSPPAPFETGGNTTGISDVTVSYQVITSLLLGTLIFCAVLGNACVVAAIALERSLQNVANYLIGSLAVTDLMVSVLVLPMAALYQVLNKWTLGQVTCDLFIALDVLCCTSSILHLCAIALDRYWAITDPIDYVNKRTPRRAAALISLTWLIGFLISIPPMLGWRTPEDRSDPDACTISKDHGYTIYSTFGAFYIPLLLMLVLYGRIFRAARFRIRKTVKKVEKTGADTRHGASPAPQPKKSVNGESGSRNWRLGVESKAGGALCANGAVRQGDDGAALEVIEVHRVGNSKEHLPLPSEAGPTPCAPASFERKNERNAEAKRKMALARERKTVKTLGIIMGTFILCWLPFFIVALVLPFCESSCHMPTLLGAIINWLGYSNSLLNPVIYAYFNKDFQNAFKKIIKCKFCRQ
# [3] = tested on: mice (C57BL/6J, FVB, C58/J); assay: Locomotor behavior, compound on its own; format: in vivo, mouse; details: for Locomotor behavior: compound on its own or in the DOI assay
# C57BL/6J mice = assay: DOI-elicited head-twitch response (HTR); format: in vivo, mouse; details: mouse, in vivo
# Excerpt: The 5-HT2A receptor is a predominant 5-HT receptor in the cortex, and serves important excitation modulation functions on glutamate pyramidal and GABA neurons.
# BL/6J mice = assay: Serotonin syndrome-like behavior observation; format: in vivo, mouse; details: mouse, in vivo
# 5HT2A receptors [4] = biological target: T3, 5HT2A receptors (Homo sapiens, UniProt P28223); assay: 5-HT2A function in HEK cells over-expressing the receptor; format: cell-based
# T3 construct: host or cells: HEK293, transient
# T3 sequence (P28223 whole entry): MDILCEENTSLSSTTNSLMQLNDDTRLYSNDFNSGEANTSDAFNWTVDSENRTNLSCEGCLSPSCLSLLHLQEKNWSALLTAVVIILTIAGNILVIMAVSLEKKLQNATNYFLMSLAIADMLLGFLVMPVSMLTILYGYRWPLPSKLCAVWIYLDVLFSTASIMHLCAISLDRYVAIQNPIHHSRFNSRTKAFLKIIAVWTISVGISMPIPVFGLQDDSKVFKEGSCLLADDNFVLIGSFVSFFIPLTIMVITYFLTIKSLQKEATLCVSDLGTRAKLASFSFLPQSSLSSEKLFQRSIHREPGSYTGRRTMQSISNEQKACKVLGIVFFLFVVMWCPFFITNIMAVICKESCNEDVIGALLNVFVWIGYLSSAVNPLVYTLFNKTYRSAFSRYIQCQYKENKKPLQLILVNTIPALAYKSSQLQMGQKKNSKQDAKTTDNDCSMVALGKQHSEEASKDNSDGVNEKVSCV
# 5HT2A receptors [5] = biological target: T3, 5HT2A receptors; assay: biochemical; format: binding
# 5HT7 [6] = biological target: T1, 5HT7; assay: 5HT7 function, Gs-cAMP signaling (HEK293 cells); format: cell-based; set-up: ATCC CRL-1573 (cells); details: for Function at 5HT7: cAMP signaling
# Excerpt: It is certain that the C(5) substituent impacts function. […] In FIG. 3, results of measured (S)-5-PAT scaffold yields with various function as 5HT7 ligands are compared with AS-19 and clozapine.
# 5HT2C receptors = biological target: T4, 5HT2C receptors (Homo sapiens, UniProt P28335); assay: 5HT2C functional assay; format: cell-based
# T4 construct: host or cells: HEK293, transient
# T4 sequence (P28335 33-458): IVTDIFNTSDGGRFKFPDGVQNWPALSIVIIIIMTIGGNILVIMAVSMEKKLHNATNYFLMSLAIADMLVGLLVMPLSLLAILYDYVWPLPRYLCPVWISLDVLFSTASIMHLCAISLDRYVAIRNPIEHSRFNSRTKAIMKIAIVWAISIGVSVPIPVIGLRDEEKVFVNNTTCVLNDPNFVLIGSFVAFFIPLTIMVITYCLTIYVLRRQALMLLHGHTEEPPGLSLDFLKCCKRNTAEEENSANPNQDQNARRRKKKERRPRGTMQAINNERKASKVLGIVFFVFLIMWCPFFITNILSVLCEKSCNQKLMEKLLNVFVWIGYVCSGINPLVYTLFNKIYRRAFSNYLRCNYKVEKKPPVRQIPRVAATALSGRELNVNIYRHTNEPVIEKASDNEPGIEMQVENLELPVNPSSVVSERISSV
# 5HT2B receptors [7] = biological target: T5, 5HT2B receptors (Homo sapiens, UniProt P41595); assay: Affinity at 5HT2B receptors; format: binding
# T5 construct: host or cells: HEK293, transient
# T5 sequence (P41595 whole entry): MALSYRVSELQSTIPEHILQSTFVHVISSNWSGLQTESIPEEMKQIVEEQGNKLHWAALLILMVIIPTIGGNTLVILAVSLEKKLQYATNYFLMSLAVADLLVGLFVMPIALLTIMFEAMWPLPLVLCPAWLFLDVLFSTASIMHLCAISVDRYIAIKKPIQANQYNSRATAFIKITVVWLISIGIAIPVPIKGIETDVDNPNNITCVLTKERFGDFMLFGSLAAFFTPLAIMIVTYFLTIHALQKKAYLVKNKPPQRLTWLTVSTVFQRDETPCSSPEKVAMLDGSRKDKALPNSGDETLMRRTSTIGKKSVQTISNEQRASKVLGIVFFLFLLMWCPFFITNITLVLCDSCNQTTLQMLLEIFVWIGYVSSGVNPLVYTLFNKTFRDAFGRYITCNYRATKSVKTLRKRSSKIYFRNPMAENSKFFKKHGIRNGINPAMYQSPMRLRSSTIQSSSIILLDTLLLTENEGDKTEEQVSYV
# 5HT2B receptors [8] = biological target: T5, 5HT2B receptors; assay: 5HT2B functional assays; format: cell-based
# 50 CNS/peripheral sites = assay: NIMH PDSP / NIDA evaluation at 50 CNS/peripheral sites; format: binding
# 5HT1A [9] = biological target: T2, 5HT1A; assay: 5HT1A function, Gαi cAMP signaling (CHO cells); format: cell-based
# 5HT7 [10] = biological target: T1, 5HT7; set-up: ATCC CRL-1573 (cells); details: cited from earlier work
# 5HT7 [11] = biological target: T1, 5HT7; set-up: ATCC CRL-1573 (cells); details: reported human receptor data; cited from earlier work
# [12] = read-out: Affinity Ki ± SEM at 5HT7
# [13] = read-out: Affinity Ki ± SEM at 5HT1A
structure (smiles),measurement,setting,value
"Fc1ccccc1-c1cccc2c1CCC(N1CCCC1)C2 (racemic) [(R/S)-5-FPyT, 1-(5-(2-fluorophenyl)-1,2,3,4-tetrahydronaphthalen-2-yl)-pyrrolidine]",Ki,5HT7 [1],51 ± 8 nM
same,Ki,5HT1A [2],1.3 ± 0.1 nM
"CCCN(CCC)C1CCc2cccc(O)c2C1 (single isomer, unassigned; (+)) [(+)-DPAT, reference compound]",Locomotor behavior,[3],severe hypolocomotion
same,DOI-elicited HTR,C57BL/6J mice,suppressed the DOI HTR
same,Serotonin syndrome,BL/6J mice,obvious serotonin syndrome
CN(C)[C@@H]1CCc2c(cccc2-c2ccccc2F)C1 [(2R)-5-FPT],Function at 5-HT2A receptors,5HT2A receptors [4],neutral antagonist function
same,DOI-elicited HTR,C57BL/6J mice,substantially less efficacious than (2S)-5-FPT
same,Affinity at 5-HT2A receptors,"5HT2A receptors [5]; human and mouse 5-HT2A receptors, compared with (2S)-5-FPT",substantially higher affinity
same,Ki,5HT7 [1]; Affinity Ki ± SEM at 5HT7,750 nM and ~460 nM
same,5-HT7 agonist potency of (R)-enantiomer less than (S)-isomer,5HT7 [6],about 11 times
same,EC50,5HT7 [6],378 nM
same,"EMAX vs AS-19, 5-HT7 Gs-cAMP signaling",5HT7 [6],29%
same,Function at 5HT7,5HT7 [6],partial agonism
"CCCN(CCC)[C@H]1CCc2c(cccc2-c2ccccc2Cl)C1 [(S)-5-CPPT, (2S)-5-(2′-chlorophenyl)-N,N-dipropyl-1,2,3,4-tetrahydronaphtha-len-2-amine]",Ki,5HT7 [1]; [12],5.9 ± 1 nM
same,Function at 5HT7,5HT7 [6],Full agonist
same,Ki,5HT1A [2],0.6 ± 0.2 nM
"CN(C)[C@H]1CCc2c(cccc2-c2ccccc2Cl)C1.Cl [(S)-5-CPT, (2S)-5-(2-chlorophenyl)-N,N-dimethyl-1,2,3,4-tetrahydronaphthalen-2-amine HCl]",Agonist efficacy/potency at 5HT2C receptors,5HT2C receptors,less potency and efficacy
same,Ki,5HT2B receptors [7],11 nM
same,5HT2B functional activity,5HT2B receptors [8],devoid of 5HT2B activity up to 100 μM
same,Ki,5HT2A receptors [5],~500 nM
same,Ki,5HT7 [1]; [12],1 ± 0.12 nM
same,Function at 5HT7,5HT7 [6],Partial agonist
same,Ki,5HT1A [2]; [13],7.5 ± 1.5 nM
same,Activity at 50 CNS/peripheral sites,50 CNS/peripheral sites,without activity at 50 CNS/peripheral sites
same,Function at 5HT1A,5HT1A [9],Partial agonist
"CN(C)[C@H]1CCc2c(cccc2-c2cccc3ccccc23)C1 [(S)-5-NaT, (2S)—N,N-dimethyl-5,6,7,8-tetrahydro-[1,1′-binaphthalen]-6-amine]",Ki,5HT7 [1]; [12],5.2 ± 1.1 nM
same,Function at 5HT7,5HT7 [6],Partial agonist
same,Ki,5HT1A [2]; [13],64 ± 12 nM
same,Function at 5HT1A,5HT1A [9],Partial agonist
"CCCN(CCC)[C@H]1CCc2c(cccc2-c2ccccc2)C1.Cl [(S)-5-PPT, (2S)-5-phenyl-N,N-dipropyl-1,2,3,4-tetrahydronaphthalen-2-amine HCl]",Ki,5HT7 [1]; [12],34 ± 3 nM
same,Function at 5HT7,5HT7 [6],Full agonist
same,Ki,5HT1A [2]; [13],5.9 ± 1.1 nM
"CN(C)[C@H]1CCc2c(cccc2-c2ccccc2)C1.Cl [(S)-5-PT, N,N-dimethyl-5-phenyl-1,2,3,4-tetrahydronaphthalen-2-amine HCl]",Ki,5HT7 [1]; Affinity Ki ± SEM at 5HT7,9.5 ± 1.5 nM
same,Function at 5HT7,5HT7 [6],Neutral antagonist
same,Ki,5HT1A [2],22 ± 3 nM
same,Function at 5HT1A,5HT1A [9],Partial agonist
CN(C)[C@H]1CCc2c(cccc2-c2cccn2C)C1 [(S)-5-PyT],Ki,5HT7 [1]; Affinity Ki ± SEM at 5HT7,33 ± 4 nM
same,Function at 5HT7,5HT7 [6],Inverse agonist
same,Function at 5HT7,5HT7 [6]; listed as 5-PyT,inverse agonist at 5HT7/Gαs
same,Function at 5HT7,5HT7 [6]; listed as (2S)-5-PyT,inverse agonist
same,Ki,5HT1A [2],24 ± 0.2 nM
same,Function at 5HT1A,5HT1A [9],Partial agonist
same,Function at 5HT1A,5HT1A [9]; listed as 5-PyT,agonist at 5HT1A/Gαi
same,Function at 5HT1A,5HT1A [9]; listed as (2S)-5-PyT,agonist
"Cc1nn(C)c(C)c1-c1cccc2c1CC[C@H](N(C)C)C2 [(S)-AS-19, (2S)-5-trimethylpyrazolyl-2-dimethyl-aminotetralin, reference compound]",Locomotor behavior,[3],"neither (—)-DPAT, a 5-HT1A partial agonist, nor AS-19 affected locomotor behavior"
same,DOI-elicited HTR,C57BL/6J mice,suppressed the DOI HTR
same,Selectivity for 5HT7 over 5HT1A,5HT7 [1]; from Ki of Table 1,20 fold
same,Ki,5HT7 [1]; [12],12 nM
same,Function at 5HT7,5HT7 [6],Partial agonist
same,Ki,5HT1A [2]; [13],240 nM
same,Serotonin syndrome,BL/6J mice,"neither (—)-DPAT, a 5-HT1A partial agonist, nor AS-19 affected locomotor behavior or caused obvious serotonin syndrome"
"CCCN(CCC)C1CCc2cccc(O)c2C1 (stereo not drawn) [(—)-DPAT, reference compound]",Locomotor behavior,[3],"neither (—)-DPAT, a 5-HT1A partial agonist, nor AS-19 affected locomotor behavior"
same,DOI-elicited HTR,C57BL/6J mice,suppressed the DOI HTR
same,Serotonin syndrome,BL/6J mice,"neither (—)-DPAT, a 5-HT1A partial agonist, nor AS-19 affected locomotor behavior or caused obvious serotonin syndrome"
"O=C1CC2(CCCC2)CC(=O)N1CCCCN1CCN(c2ncccn2)CC1 [Buspirone, reference compound]",Catatonia,"[3]; 3 mg/kg, by itself",causes stupor-like catatonia
same,Locomotor behavior,[3],reduces locomotor behavior
same,DOI-elicited HTR,C57BL/6J mice,reduces DOI-elicited repetitive behavior
same,Function at 5HT1A,5HT1A [9],Partial agonist
"CCCN(CCC)[C@@H]1CCc2cccc(O)c2C1 [Compound 8-OH-DPAT, (R)-8-hydroxy-2-(n-di-propylamino)tetralin]",Function at 5HT7 (literature),5HT7 [10],low-potency 5HT7 partial agonist
N#Cc1ccc(CNC(=O)CCCCCN2CCN(c3ccccc3-c3ccccc3)CC2)cc1 [LP-211],Selectivity for 5HT7 over 5HT1A receptors,5HT7 [11],about 25 X
